Molecules are shown by their SMILES.

These results are taken from patent US8338492B2, “Films and particles” (priority 2006, dated 2012).

In assay [1] the test system is Lewis Lung Carcinoma (LLC) cell line. Kind of assay: Cell proliferation assay (MTT, 5 days) with paclitaxel. It is filed as cell-based, murine. The settings on record: media containing 10% FBS. Here is the method:
(§1) Lewis Lung Carcinoma (LLC), Melanoma and Calu6 (human lung cancer) cell lines were plated at 3,000 cells/well and when established, cultured in media with/without paclitaxel.

The test system of assay [2] is Calu6 (human lung cancer) cell line. The description is as above. The settings on record: media containing 10% FBS. It is filed as cell-based. Here is the method:
as §1

The test system of assay [3] is Melanoma cell line. The settings on record: 5 days, media containing 10% FBS.
Procedure: Cell proliferation assays testing the effects of paclitaxel were performed using three tumor cell lines. Lewis Lung Carcinoma (LLC), Melanoma and Calu6 (human lung cancer) cell lines were plated at 3,000 cells/well and when established, cultured in media with/without paclitaxel. Some cultures were maintained with optimal growth factors (serum) whereas others were serum starved (non-growing) cultures. At the end of 5 days, tumor cell proliferation was assessed via MTT analysis.
To determine the kinetics of the anti-tumor response elicited by paclitaxel-loaded microparticles and to assess for a potential “burst effect” of drug release, a cell proliferation assay comparing paclitaxel-loaded microparticles and DMSO (control) microparticles using the melanoma cell line was run for five consecutive days with a plate undergoing MTT analysis each day for days 2-5. Paclitaxel loaded microparticles and DMSO microparticles were added to serum rich media and individually assessed on tumor cells of the same plate.
Assay [4] concerns Tumor cells. The settings on record: estimated.
Procedure: Cell proliferation assays were utilized to study the effects of paclitaxel-loaded microparticles on tumor growth. Tumor cells were plated at 3000 cells/well and positive (serum-rich) and negative (serum-poor) cultures were used to signify 0% and 100% growth inhibition respectively.

As for `CC(=O)O[C@H]1C(=O)[C@@]2(C)[C@H]([C@H](OC(=O)c3ccccc3)[C@]3(O)C[C@H](OC(=O)[C@H](O)[C@@H](NC(=O)c4ccccc4)c4ccccc4)C(C)=C1C3(C)C)[C@]1(OC(C)=O)CO[C@@H]1C[C@@H]2O` [paclitaxel], the “paclitaxel concentration that reliably inhibits growth” value in assay [1], in assay [2] and in assay [3] was 1 to 10 ng/mL each time. Also, the “range of tumoricidal effects of paclitaxel” value in assay [4] was 5 to 10 ng.
